Test: Henry solubility constant Hcp at 298.15 K (mol/(m3 Pa))
Conditions: reference: Rex (1906)

| SMILES | Henry solubility constant Hcp |
| --- | --- |
| CCCBr [1-bromopropane] | 0.0011 |
| BrCBr [dibromomethane] | 0.011 |
| CCCI [1-iodopropane] | 0.001 |
| CC(C)Cl [2-chloropropane] | 0.00056 |
| CC(C)Br [2-bromopropane] | 0.0009 |
| CI [iodomethane] | 0.0019 |
| ClCCl [dichloromethane] | 0.0041 |
| ClC(Cl)(Cl)Cl [tetrachloromethane] | 0.00035 |
| CC(C)I [2-iodopropane] | 0.00085 |
| CCI [iodoethane] | 0.0015 |
| CCBr [bromoethane] | 0.0013 |
| S=C=S [carbon disulfide] | 0.00054 |
